The target in one test is T1, motilin receptors (Oryctolagus cuniculus, UniProt G1T803).
T1 construct: fraction of a tissue homogenate from rabbit antrum; from tissue; host or cells: rabbit antrum, mucosa removed, crude membrane preparation
The test can be described thus: Determination of the binding capacity of the test substances to motilin receptors (displacement of 125-iodine-labelled motilin, crude membrane preparation from rabbit antrum). The settings on record: tissue homogenate fraction from rabbit antrum; iodinated motilin 50 pM; 30° C., 60 min; read-out: pIC50 value (50% inhibition of the specific binding of the iodinated motilin to the motilin receptors) (converted). On the procedure:
1. Determination of the binding capacity of the test substances to motilin receptors.
The affinity of the compounds of Formula I for motilin receptors is measured in vitro on a fraction of a tissue homogenate from rabbit antrum. The displacement of radioactively labelled iodinated motilin from motilin receptor binding by the test substances is determined.
The receptor binding studies are carried out by a modification of the method of Borman et al. (Regulatory Peptides, 15:143-153 (1986). To prepare the ^125 iodine-labelled motilin, motilin is iodinated enzymatically using lactoperoxidase in known manner, for example in analogy to the method described by Bloom et al., Scand. J. Gastroenterol.,11:47-52 (1976). […]
For the binding test, 200 μl of the crude membrane fraction (0.5-1 mg of protein) in 400 μl of a buffer solution A (50 mM tris-HCl buffer, 1.5% BSA, 10 mM MgCl2, pH 8.0) are incubated with 100 μl of iodinated motilin diluted in buffer solution B (10 mM tris-HCl buffer, 1% BSA, pH 8) (final concentration 50 pM) at 30° C. for 60 min. […] The residue obtained as pellet after the centrifugation is washed with buffer solution B and counted in a gamma counter. […] From this the corresponding pIC50 value is calculated.

For the next test, the system named is stomach tone. Kind of test: In vivo determination of the effect of the substances on the stomach tone (barostat, stomach volume at constant pressure after lipid intake). The settings on record: beagles; maximum tolerable dose; stomach volume measured at constant pressure with barostat. On the procedure: 2. In vivo determination of the effect of the substances on the stomach tone.
The stomach tone plays an important role in gastric emptying. An increased stomach tone contributes to an increased rate of gastric emptying.
The influence of substances on the stomach tone is determined on beagles with the aid of a barostat which is connected to a plastic pouch in the stomach of the dog and permits measurement of volume or pressure in the stomach of the dog. With the barostat, the stomach volume is determined at a constant pressure in the stomach or the stomach pressure is determined at a constant volume in the stomach. When the stomach tone increases, a reduced stomach volume is detected at a given pressure, and an increased pressure at a given volume. In the test model used to investigate the increase in stomach tone effected by the substances, the change in stomach volume caused by the substances is measured at constant pressure. The stomach of the test animals is relaxed by intake of lipids, i.e. the stomach tone decreases, which causes the stomach volume to increase correspondingly. The reduction in % of the stomach volume which has been increased by administration of lipids which occurs after intake of the substance due to a re-increase in stomach tone is measured as a measurement of the stomach tone-increasing action of the substances.

Molecules are shown by their SMILES.

We go through one molecule from patent US5912235A, “10, 13, 15-trioxatricyclo [9.2.1.1.^9.6 ]-pentadecan one derivatives, method for their production and pharmaceutical compositions containing them” (Solvay Pharmaceuticals GmbH, priority 1996, dated 1999).

T1 sequence (G1T803 1-400): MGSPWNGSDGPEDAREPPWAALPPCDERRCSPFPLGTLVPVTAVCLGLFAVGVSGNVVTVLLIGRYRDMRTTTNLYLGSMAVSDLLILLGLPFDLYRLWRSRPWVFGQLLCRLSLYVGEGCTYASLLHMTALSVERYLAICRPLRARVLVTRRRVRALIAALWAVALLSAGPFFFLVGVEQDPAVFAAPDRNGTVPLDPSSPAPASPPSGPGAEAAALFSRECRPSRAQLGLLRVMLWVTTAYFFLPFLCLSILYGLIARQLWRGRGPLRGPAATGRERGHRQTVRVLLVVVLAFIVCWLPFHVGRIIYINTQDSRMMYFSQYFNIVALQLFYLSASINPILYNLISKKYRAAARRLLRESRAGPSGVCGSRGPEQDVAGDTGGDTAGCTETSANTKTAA

As for `CC[C@@H](O)[C@@]1(C)O[C@]23O[C@](C)(CC2C)[C@H](O[C@@H]2O[C@H](C)C[C@H](N(C)C(C)C)[C@H]2O)[C@@H](C)[C@H](O[C@H]2C[C@@](C)(OC)[C@@H](O)[C@H](C)O2)[C@@H](C)C(=O)O[C@@H]1[C@H]3C` (stereo partly drawn) [Example 1, [(1'R),2R,3S,4S,5R,6R,9R,11R,12R,14R]-11-(1'-hydroxypropyl)-3-[(2,6-dideoxy-3-C-methyl-3-0-methyl-α-L-ribohexopyranosyl)-oxy]-5-[(3,4,6-trideoxy-3-(N-methyl-N-isopropylamino)-β-D-xylo-hexopyranosyl)-oxy]-2,4,6,8,11,14-hexamethyl-10,13,15-trioxatricyclo[9.2.1.1^9.6]-pentadecan-1-one], the IC50 at motilin receptors is 14.1 nM. Also, in the test with stomach tone, the “reduction in the stomach volume increased after lipid administration” value is on record as 69%.
